# ChEMBL document CHEMBL1201862, “PubChem BioAssay data set” (2004)
#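 Briefly, cells in 96-well plates were exposed to five compound concentrations for 48 h, and endpoints were estimated by linear interpolation. GI50 = concentration required for 50% inhibition of growth.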 Calls of active or inactive are those of the source. Cut-off read from the data, not from the text of the source: active = GI50 up to about 1.1 µM and inactive = higher.
# Tests used:
# Assay in all cases: growth of human tumour cells (NCI), 48 h
# A549 = system: A549
# BT-549 = system: BT-549
# EKVX = system: EKVX
# HCT-116 = system: HCT-116
# HL-60 = system: HL-60
# HT-29 = system: HT-29
# LOX IMVI = system: LOX IMVI
# M14 = system: M14
# MDA-MB-231 = system: MDA-MB-231
# NCI-H226 = system: NCI-H226
# NCI-H23 = system: NCI-H23
# NCI-H460 = system: NCI-H460
# PC-3 = system: PC-3
# SK-MEL-2 = system: SK-MEL-2
# SNB-75 = system: SNB-75
# SW-620 = system: SW-620
# U-251 = system: U-251
# UACC-62 = system: UACC-62
# UO-31 = system: UO-31
# SF-268 = system: SF-268
SMILES,GI50 (A549),GI50 (BT-549),GI50 (EKVX),GI50 (HCT-116),GI50 (HL-60),GI50 (HT-29),GI50 (LOX IMVI),GI50 (M14),GI50 (MDA-MB-231),GI50 (NCI-H226),GI50 (NCI-H23),GI50 (NCI-H460),GI50 (PC-3),GI50 (SK-MEL-2),GI50 (SNB-75),GI50 (SW-620),GI50 (U-251),GI50 (UACC-62),GI50 (UO-31),GI50 (SF-268)
COC(=O)C1(c2cc3ccccc3n2S(=O)(=O)c2ccccc2)CC2C=CC1NC2 (stereo not drawn),2.96 µM (inactive),2.36 µM (inactive),4.03 µM (inactive),2.23 µM (inactive),1.94 µM (inactive),1.79 µM (inactive),1.74 µM (inactive),1.79 µM (inactive),1.79 µM (inactive),8.97 µM (inactive),2.18 µM (inactive),3.11 µM (inactive),1.61 µM (inactive),1.77 µM (inactive),3.8 µM (inactive),2.91 µM (inactive),1.43 µM (inactive),1.62 µM (inactive),1.48 µM (inactive),
C=CCOC(=O)N1c2ccc(O[Si](C)(C)C(C)(C)C)cc2[C@@]23O[C@@]24[C@@H]1C#C/C=C\C#C[C@]3(O)C(OC)(OC)C[C@@H]4C,20 µM (inactive),> 100 µM (inactive),> 38.5 µM (inactive),8.38 µM (inactive),,12.9 µM (inactive),16.7 µM (inactive),> 65 µM (inactive),> 100 µM (inactive),13.6 µM (inactive),16.3 µM (inactive),11.5 µM (inactive),4.54 µM (inactive),> 100 µM (inactive),4.82 µM (inactive),14 µM (inactive),18.6 µM (inactive),10.8 µM (inactive),14.1 µM (inactive),97.7 µM (inactive)
CC1=Nc2c(C#N)ncn2N=C(C)C1,> 100 µM (inactive),> 100 µM (inactive),,> 100 µM (inactive),> 100 µM (inactive),> 100 µM (inactive),> 100 µM (inactive),> 100 µM (inactive),> 100 µM (inactive),> 100 µM (inactive),> 100 µM (inactive),> 100 µM (inactive),> 100 µM (inactive),> 100 µM (inactive),> 100 µM (inactive),> 100 µM (inactive),> 100 µM (inactive),> 100 µM (inactive),> 100 µM (inactive),> 100 µM (inactive)
CN(C)CCNS(=O)(=O)N(C)C,> 100 µM (inactive),> 100 µM (inactive),> 100 µM (inactive),> 100 µM (inactive),> 100 µM (inactive),> 100 µM (inactive),> 100 µM (inactive),> 100 µM (inactive),> 100 µM (inactive),> 100 µM (inactive),> 100 µM (inactive),> 100 µM (inactive),> 100 µM (inactive),> 100 µM (inactive),> 100 µM (inactive),> 100 µM (inactive),> 100 µM (inactive),> 100 µM (inactive),,> 100 µM (inactive)
CC(C)CCCC(C)[C@H]1CC[C@H]2n3c(nnc3-c3ccccc3)CCC[C@]12C (stereo partly drawn),9.86 µM (inactive),19.8 µM (inactive),,9.48 µM (inactive),3.54 µM (inactive),17.5 µM (inactive),1.86 µM (inactive),12.8 µM (inactive),15 µM (inactive),14.8 µM (inactive),12.4 µM (inactive),9.91 µM (inactive),9.33 µM (inactive),12.4 µM (inactive),17.5 µM (inactive),6.21 µM (inactive),7.19 µM (inactive),12.4 µM (inactive),10.4 µM (inactive),12.7 µM (inactive)
CCC(C)SC1SCC2C(=O)N(C)C3(CC3C)C(=O)OCC(NC(=O)c3nc4ccccc4cc3O)C(=O)NC(C)C(=O)N(C)C1C(=O)N(C)C1(CC1C)C(=O)OCC(NC(=O)c1nc3ccccc3cc1O)C(=O)NC(C)C(=O)N2C (stereo not drawn),0.00015 µM (active),4.35e-05 µM (active),0.00038 µM (active),,9.29e-05 µM (active),,2.6e-05 µM (active),0.000116 µM (active),5.78e-05 µM (active),4.99e-05 µM (active),3.25e-05 µM (active),4.82e-05 µM (active),0.000116 µM (active),4.37e-05 µM (active),2.93e-05 µM (active),4.78e-05 µM (active),3.18e-05 µM (active),1.55e-05 µM (active),0.00275 µM (active),4.81e-05 µM (active)
S=C(N/N=C\C(=N/NC(=S)N1CCCCC1)c1ccccc1)N1CCCCC1,2.28 µM (inactive),1.88 µM (inactive),1.97 µM (inactive),2.3 µM (inactive),,2.23 µM (inactive),3.33 µM (inactive),1.92 µM (inactive),2.43 µM (inactive),1.84 µM (inactive),2.42 µM (inactive),2.14 µM (inactive),1.92 µM (inactive),2.25 µM (inactive),2.1 µM (inactive),2 µM (inactive),1.84 µM (inactive),1.99 µM (inactive),1.74 µM (inactive),1.99 µM (inactive)
COC1CC(OC2C(C)OC(OC3C(C)OC(OC4C(C)OC(O[C@H]5CC[C@@]6(C)C(=CC[C@]7(O)[C@@H]6C[C@@H](OC(C)=O)[C@@]6(C)[C@]7(O)CC[C@@]6(O)C(C)=O)C5)CC4OC)CC3OC)CC2OC)OC(C)C1O (stereo partly drawn),> 25 µM (inactive),> 25 µM (inactive),> 25 µM (inactive),> 25 µM (inactive),> 25 µM (inactive),> 25 µM (inactive),> 25 µM (inactive),> 25 µM (inactive),> 25 µM (inactive),> 25 µM (inactive),> 25 µM (inactive),,> 25 µM (inactive),> 25 µM (inactive),> 25 µM (inactive),> 25 µM (inactive),> 25 µM (inactive),> 25 µM (inactive),> 25 µM (inactive),> 25 µM (inactive)
C/C=C(/C)C(=O)O[C@H](C[C@@H](C)[C@H]1CC(c2ccoc2)OC1=O)[C@@]1(C)C(=O)CCC2O[C@]21C (stereo partly drawn),> 100 µM (inactive),> 100 µM (inactive),> 100 µM (inactive),> 100 µM (inactive),> 100 µM (inactive),> 100 µM (inactive),> 100 µM (inactive),> 100 µM (inactive),> 100 µM (inactive),> 100 µM (inactive),> 100 µM (inactive),> 100 µM (inactive),> 100 µM (inactive),> 100 µM (inactive),> 100 µM (inactive),> 100 µM (inactive),> 100 µM (inactive),> 100 µM (inactive),> 100 µM (inactive),
Oc1cc(O)c2c(c1)O[C@H](c1cc(O)c(O)c(O)c1)[C@@H](O)C2 [GALLOCATECHIN],40.5 µM (inactive),23.6 µM (inactive),24.8 µM (inactive),17.9 µM (inactive),22.2 µM (inactive),,20.5 µM (inactive),25.1 µM (inactive),18.7 µM (inactive),28.8 µM (inactive),23.5 µM (inactive),19.2 µM (inactive),30.7 µM (inactive),24.6 µM (inactive),17.9 µM (inactive),17.3 µM (inactive),19.7 µM (inactive),,18.2 µM (inactive),23.6 µM (inactive)
